Source: US20250049787A1, “TREATMENT FOR ACUTE MYELOID LEUKEMIA OR LYMPHOMA” (UNIVERSITY HEALTH NETWORK, priority 2021, published 2025)
Counter-ions that a name gives are not always drawn.

Legend:
[1] = system: PARP cleavage (apoptotic cell death); assay: Immunoblot of PARP cleavage in MV-4-11 cells; type: cell-based, human; settings: 4 hours
Experimental: (§1) MV-4-11 cells (FLT3 LOH, FLT3-ITD positive cells) were treated with the indicated concentrations of Compound (I) tartrate for 4 hours at 37° C. and 5% CO2. Lysates were analyzed by immunoblot analysis with antibodies against FLT3 (Cell Signaling Technology, Inc., Cat. #3462), PARP (Cell Signaling Technology, Inc., Cat. #9542) and GAPDH (Millipore, Cat. #MAB374). Protein bands were visualized using a LI-COR Odyssey near infrared imager and representative data are shown. Compound (I) tartrate treatment increases the expression of the mature 160 kDa form of FLT3-ITD in MV-4-11 cells in a dose-dependent manner. Apoptotic cell death as measured by PARP cleavage was induced by Compound (I) tartrate treatment.

FLT3-ITD maturation = FLT3-ITD maturation in MOLM-14 cells; type: cell-based, human; settings: MOLM-14 cells (co-express FLT3-ITD and wild-type FLT3); data not shown
[2] = system: mature 160 kDa form of FLT3-ITD; assay: Immunoblot of FLT3 in MV-4-11 cells; type: cell-based, human; settings: 4 hours, dose-dependent
Experimental: as §1

K562 = assay: Growth inhibition, Alamar Blue; type: cell-based; settings: Homo sapiens, 72 h; K562, CML; 3 days
Experimental: (§2) Cell lines were obtained from American Type Culture Collection (ATCC) and maintained according to the supplier's instructions, and from Dr. Mark Minden (Princess Margaret Cancer Centre, Toronto, Canada). Short tandem repeat (STR) profiling was used to verify authenticity of the cell lines. Peripheral blood from healthy human donors was obtained from the Hematology Malignancy Tissue Bank at the University Health Network. Peripheral blood mononuclear cells (PBMC) were prepared from the blood by density gradient centrifugation using Ficoll-Paque PLUS by manufacturer's instructions (GE Healthcare Life Sciences). […] Compound (I) tartrate was prepared as a 10 mM stock solution in 100% DMSO. The stock solution was diluted with RPMI-1640 (Invitrogen) containing 10% FBS (fetal bovine serum) such that the final concentrations ranged from 300 fM to 300 μM. Aliquots (20 μL) from each concentration were overlaid to 180 μL of pre-seeded cells to achieve final concentrations of 30 fM to 30 μM. After 3 days, cell growth in each well was assessed by Alamar Blue assay reagent (Invitrogen). Raw fluorescence (λEM=590 nm) values were adjusted by subtracting the average of the baseline readings from untreated cells assessed one day after cell seeding. Relative cell growth was calculated by comparing to DMSO-treated cells. The concentrations at which cell growth was inhibited by 50% (growth inhibition IC50) were calculated using GraphPad PRISM software (GraphPad Software Inc.).

KOPN-8 = assay: Growth inhibition, Alamar Blue; type: cell-based; settings: Homo sapiens, 72 h; KOPN-8, B-ALL; 3 days
Experimental: as §2

OCI-LY8 = assay: Growth inhibition, Alamar Blue; type: cell-based; settings: Homo sapiens, 72 h; OCI-LY8, NHL, GCB-DLBCL; 3 days
Experimental: as §2

U937 = assay: Growth inhibition, Alamar Blue; type: cell-based; settings: Homo sapiens, U-937, 72 h; U937, AML M5; 3 days
Experimental: as §2

OCI-AML5 = assay: Growth inhibition, Alamar Blue; type: cell-based; settings: Homo sapiens, OCI-AML-5, 72 h; OCI-AML5, AML M4; 3 days
Experimental: as §2

RAJI = assay: Growth inhibition, Alamar Blue; type: cell-based; settings: Homo sapiens, 72 h, NHL, Burkitt's lymphoma, 3 days
Experimental: as §2

DAUDI = assay: Growth inhibition, Alamar Blue; type: cell-based; settings: Homo sapiens, 72 h, NHL, Burkitt's lymphoma, 3 days
Experimental: as §2

NALM-6 = assay: Growth inhibition, Alamar Blue; type: cell-based; settings: Homo sapiens, 72 h; NALM-6, B-ALL; 3 days
Experimental: as §2

OCI-LY18 = assay: Growth inhibition, Alamar Blue; type: cell-based; settings: Homo sapiens, 72 h; OCI-LY18, NHL, GCB-DLBCL; 3 days
Experimental: as §2

OCI-LY10 = assay: Growth inhibition, Alamar Blue; type: cell-based; settings: Homo sapiens, 72 h; OCI-LY10, NHL, ABC-DLBCL; 3 days
Experimental: as §2

HL-60 = assay: Growth inhibition, Alamar Blue; type: cell-based; settings: Homo sapiens, 72 h; HL-60, AML M2; FLT3 wild-type, protein expressed; 3 days
Experimental: as §2

THP-1 = assay: Growth inhibition, Alamar Blue; type: cell-based; settings: Homo sapiens, 72 h; THP-1, AML M5; FLT3 wild-type, protein expressed; 3 days
Experimental: as §2

MOLM-14 = assay: Growth inhibition, Alamar Blue; type: cell-based; settings: Homo sapiens, 72 h; MOLM-14, AML M5; FLT3 ITD + wild-type, protein expressed; 3 days
Experimental: as §2

MV-4-11 = assay: Growth inhibition, Alamar Blue; type: cell-based; settings: Homo sapiens, MV4-11, 72 h; MV-4-11, AML M5; FLT3 ITD, protein expressed; 3 days
Experimental: as §2

OCI-AML4 = assay: Growth inhibition, Alamar Blue; type: cell-based; settings: Homo sapiens, 72 h; OCI-AML4, AML M4; 3 days
Experimental: as §2

MV-4-11 xenografts = assay: MV-4-11 xenograft model of human AML in CD-1 Nude mice; type: in vivo; settings: for tumor status after 10 days of treatment: established MV-4-11 xenografts
Experimental: Female 8- to 10-week-old CD-1 Nude mice (Charles River Laboratories) with established MV-4-11 xenografts were treated for 21 days (n=8). MV-4-11 cells is a human AML cell line which endogenously expresses a Fms Related Receptor Tyrosine Kinase 3 (FLT3) internal tandem duplication (ITD) mutation. Animal weights were monitored daily, and tumor volume was measured three times per week. Tumor volume (mm^3) was defined as follows, length×width^2/2. Percentage tumor growth inhibition (% TGI) was defined as follows, 100×[1−(TVf,treated−TVi,treated)/(TVf,control−TVi,control)], where TVf is the average tumor volume at the end of study, and TVi is the average tumor volume at the initiation of treatment. In cases where tumor regression occurred, percentage tumor regression was defined as follows, 100×[1−(TVf,treated/TVi,treated)]. At the completion of the study, the mice were sacrificed by an anesthetic overdose. The Institutional Animal Care and Use Committee of the University Health Network approved all animal procedures. […] Data are represented as mean±SEM. p values were calculated using Student's/test.

Structure (SMILES): CN1CCN(c2ccc3nc(-c4c(N)c5ccsc5[nH]c4=O)[nH]c3c2)CC1 [Compound (I) tartrate, 4-amino-5-(6-(4-methylpiperazin-1-yl)-1H-benzo[d]imidazol-2-yl)thieno[2,3-b]pyridin-6(7H)-one]
- apoptotic cell death as measured by PARP cleavage [1]: induced
- FLT3-ITD maturation (FLT3-ITD maturation): increase
- expression of the mature 160 kDa form of FLT3-ITD [2]: increases
- IC50 (K562): 6000 nM
- IC50 (KOPN-8): 3300 nM
- IC50 (OCI-LY8): 3600 nM
- IC50 (U937): 770 nM
- IC50 (OCI-AML5): 270 nM
- IC50 (RAJI): 6600 nM
- IC50 (DAUDI): 1300 nM
- IC50 (NALM-6): 10000 nM
- IC50 (OCI-LY18): 90 nM
- IC50 (OCI-LY10): 570 nM
- IC50 (HL-60): 1200 nM
- IC50 (THP-1): 1300 nM
- IC50 (MOLM-14): 4.7 nM
- IC50 (MV-4-11): 3.7 nM
- IC50 (OCI-AML4): 160 nM
- tumor status after 10 days of treatment (MV-4-11 xenografts; 50 mg/kg orally QD): tumors were undetectable
- effect on large tumors after 7 days of treatment (MV-4-11 xenografts; 50 mg/kg, large tumors (≅900 mm^3)): complete tumor regression
- tumor status after 10 days of treatment (MV-4-11 xenografts; 150 mg/kg orally QD): tumors were undetectable
- tolerability (body weight and behavior) (MV-4-11 xenografts; CD-1 Nude mice, 21 days treatment): well tolerated
